Experiment [1] in a line: Arginine tolerance test (serum insulin after L-arginine injection). It is filed as in vivo. As to conditions: wild-type and GnT-4a deficient mice, fasted 16 hr, i.p. 3 g/Kg. How it is done:
Mice were fasted for 16 hr followed by intraperitoneal (i.p.) glucose injection (1.5 g/Kg body weight). Blood samples were obtained at 0, 30, 60, 120, and 240 min after the injection and measurements of glucose and insulin was determined, the latter using a rat insulin ELISA assay with a mouse insulin standard (Crystal Chem., Chicago, Ill.). In testing insulin tolerance, mice were injected i.p. with 2 U/kg body weight human insulin (Carbiochem, La Jolla, Calif.) followed by blood collection at 0, 30, 60 120, and 240 min after injection, and serum glucose levels were analyzed. In arginine tolerance tests, mice were fasted overnight for 16 hr followed by i.p. injection (3 g/Kg body weight) of L-arginine (Sigma, St. Louis, Mo.). Blood samples were analyzed at 0, 2, 5, 15, and 30 min after the injection.

Another experiment relates to islet cells. In words: In vitro islet cell glucose transport assay (2-NBDG uptake). As to conditions: for Km: Lineweaver-Burke plot, 5 min incubation. It counts as cell-based, mouse. How it is done:
Mouse islet cells were obtained as described (Josefsen et al., J. Endocrinology 14: 145-154, 1996). Briefly, the pancreatic duct was ligated distally and injected with 3 mg/ml collagenase (Sigma), 5 μg/ml DNase (Sigma) and 5.6 mM glucose in Hank's balanced salt solution (HBSS)). The pancreas was removed and incubated for 14 min at 37° C. with shaking (200 strokes/min). The suspension was passed through a 16 gauge needle, centrifuged and suspended in the bottom layer of a discontinuous Ficoll gradient (11%, 20%, 23%, and 25%). After 15 min of centrifugation at 800× gravity at room temperature, cells were recovered from the interfaces and washed in HBSS, followed by hand selection of the islet-enriched interface under a stereomicroscope. Islets were gently dispersed after three consecutive washes with HBSS, then exposed to 0.5 U/ml of dispase (Calbiochem) in HBSS for 3 min. This was followed by gentle repetitive pipeting and a final wash with HBSS. The cells were cultured in RPMI-1640 medium containing 10% FCS, 2 mM L-glutamine, 0.1 mM 2-mercaptoethanol, and 11 mM glucose.
Glucose transport into islet cells was measured using 2-[N-(7-nitrobenz-2-oxa-1,3-diazol-4-yl)amino]-2-deoxy-D-glucose (2-NBDG, Molecular Probes) as described (Yamada et al., J. Biol. Chem. 275: 22278-22283, 2000) Islet cells were incubated in glucose free-KRBH for 20 min at 37° C., and then with various concentrations of 2-NBDG. To measure the time course of 2-NBDG transport, islet cells were incubated with 500 μM of 2-NBDG in KRBH in the presence or absence of 10 mM D-glucose for the indicated times (FIG. 2K), then washed three times with glucose free-KRBH, and intracellular fluorescence (excitation 485-495 nm, emission 515-525 nm) was measured using a VersaFluor Fluorometer System (Bio-Rad, Hercules, Calif.). Concentration dependence was determined in same conditions except that cells were incubated with 100 μM, 200 μM, 400 μM, 800 μM, 1.6 mM, 3.2 mM, or 6.4 mM of 2-NBDG for 5 min.

The values below come from patent publication US8034556B2, “Regulation of glucose and insulin levels by GnT-4 glycosyltransferase activity” (The Regents of the University of California, priority 2004, dated 2011).

Turning to `N=C(N)NCCC[C@H](N)C(=O)O` [L-arginine], in experiment [1], the “Serum insulin concentrations after L-arginine treatment” value is listed as “robust increases in serum insulin concentrations”.
Regarding `O=[N+]([O-])c1ccc(N[C@H]2C(O)O[C@H](CO)[C@@H](O)[C@@H]2O)c2nonc12` (stereo partly drawn) [2-NBDG, 2-[N-(7-nitrobenz-2-oxa-1,3-diazol-4-yl)amino]-2-deoxy-D-glucose], the Km (in general, the concentration of substrate that gives half-maximal velocity) with islet cells (Mgat4a null islet cells) was 9.1 mM; in the experiment on islet cells (wild-type islet cells) it was 9.53 mM. Besides, the results for the “Vmax of 2-NBDG uptake” value in the experiment with islet cells (Mgat4a null islets) and with islet cells (wild-type islets) were 1.86 nmol/5 min/0.5×10^5 cells and 16.95 nmol/5 min/0.5×10^5 cells, respectively.
